The text below walks through data of article PMC9599246 (2022).

The subject of the assay is fl-2CS1 (DNA, aptamer) GAGAGGTCAGATGATGCACTAGGGTTACGAGACCACGCGGTACCCTATGCGTGCTAC
In words: ITC. As to conditions: none added; 0.1 M Tris-HCl pH 7.4, 1% DMSO, 25 °C; 125 μM toxin in syringe, 5 μM aptamer in cell.

For `CCCC[C@@H](C)[C@@H](OC(=O)C[C@@H](CC(=O)O)C(=O)O)[C@H](C[C@@H](C)C[C@H](O)CCCC[C@@H](O)C[C@H](O)[C@H](C)N)OC(=O)C[C@@H](CC(=O)O)C(=O)O`, the binding entry is recorded as “no”. Turning to `C[C@@H]1Cc2c(Cl)cc(C(=O)N[C@@H](Cc3ccccc3)C(=O)O)c(O)c2C(=O)O1`, the binding result was “no”.
